# Data from PMC4965013, “Open Source Drug Discovery with the Malaria Box Compound Collection for Neglected Diseases and Beyond” (PLoS Pathogens, 2016).
# Columns and labels:
# [1] = system: P. falciparum; test: EC50 listed in S2 Table Metabolomics (used to set the concentration tested); format: cell-based; conditions: Plasmodium falciparum; EC50 used for Factor_XEC50 in metabolomics; read-out: EC50_nM
# [2] = system: P. falciparum 3D7 trophozoites; test: Metabolomic fingerprint profiling LC-MS; format: cell-based, Plasmodium falciparum; design: UDP-D-glucose / ADP-D-glucose: unit not given here; conditions: for Acetyllysine / N-acetyl-L-ornithine / N-carbamoyl-L-aspartate / NADPH / dAMP / dCMP / dTDP / dTMP / dTTP / dihydroorotate / orotate / DLH / DLS/SDL/SID / PD / PEE / PVNF / 3-phosphoglycerate / ADP-D-glucose / ATP / CDP / D-sedoheptulose-1/7-phosphate / FAD / GMP / NAD+ / NADP+ / Octoluse Bisphosphate / Pyroglutamic acid / UDP-D-glucose / UDP-D-glucuronate / UDP-N-acetyl-glucosamine / UDP / UMP / UTP / a-ketoglutarate / citrate/isocitrate / cytidine / dATP / dGMP/AMP / fumarate / glucose-1/6-phosphate / glycerate / guanine / guanosine / hypoxanthine / indole / inosine / nicotinate / ornithine / phosphoenolpyruvate / pyruvate / ribose-phosphate / sarcosine/alanine / sn-glycerol-3-phosphate / succinate/methylmalonic acid / uridine / xanthosine: S2 Table Metabolomics; for Acetyllysine: metabolite Acetyllysine; for N-acetyl-L-ornithine: metabolite N-acetyl-L-ornithine; for N-carbamoyl-L-aspartate: metabolite N-carbamoyl-L-aspartate; for NADPH: metabolite NADPH; for dAMP: metabolite dAMP; for dCMP: metabolite dCMP; for dTDP: metabolite dTDP; for dTMP: metabolite dTMP; for dTTP: metabolite dTTP; for dihydroorotate: metabolite dihydroorotate; for orotate: metabolite orotate; for DLH: peptide DLH; for DLS/SDL/SID: peptide DLS/SDL/SID; for PD: peptide PD; for PEE: peptide PEE; for PVNF: peptide PVNF; for 3-phosphoglycerate: metabolite 3-phosphoglycerate; for ADP-D-glucose: metabolite ADP-D-glucose; for ATP: metabolite ATP; for CDP: metabolite CDP; for CDP / D-sedoheptulose-1/7-phosphate / GMP / Octoluse Bisphosphate / UDP / UMP / UTP / citrate/isocitrate / dGMP/AMP / fumarate / glucose-1/6-phosphate / glycerate / guanine / guanosine / inosine / pyruvate / sarcosine/alanine / succinate/methylmalonic acid / uridine / xanthosine: change in metabolite level after compound treatment; for D-sedoheptulose-1/7-phosphate: metabolite D-sedoheptulose-1/7-phosphate; for FAD: metabolite FAD; for GMP: metabolite GMP; for NAD+: metabolite NAD+; for NADP+: metabolite NADP+; for Octoluse Bisphosphate: metabolite Octoluse Bisphosphate; for Pyroglutamic acid: metabolite Pyroglutamic acid; for UDP-D-glucose: metabolite UDP-D-glucose; for UDP-D-glucuronate: metabolite UDP-D-glucuronate; for UDP-N-acetyl-glucosamine: metabolite UDP-N-acetyl-glucosamine; for UDP: metabolite UDP; for UMP: metabolite UMP; for UTP: metabolite UTP; for a-ketoglutarate: metabolite a-ketoglutarate; for citrate/isocitrate: metabolite citrate/isocitrate; for cytidine: metabolite cytidine; for dATP: metabolite dATP; for dGMP/AMP: metabolite dGMP/AMP; for fumarate: metabolite fumarate; for glucose-1/6-phosphate: metabolite glucose-1/6-phosphate; for glycerate: metabolite glycerate; for guanine: metabolite guanine; for guanosine: metabolite guanosine; for hypoxanthine: metabolite hypoxanthine; for indole: metabolite indole; for inosine: metabolite inosine; for 2_3-Diphosphoglyceric acid / 4-phosphopantothenate / 6-phospho-D-gluconate / FMN / IMP / Pyrophosphate / Sedoheptoluse bisphosphate / cyclic-AMP / glutathione disulfide / lactate / myo-inositol: metabolite level change after treatment; for nicotinate: metabolite nicotinate; for ornithine: metabolite ornithine; for phosphoenolpyruvate: metabolite phosphoenolpyruvate; for pyruvate: metabolite pyruvate; for ribose-phosphate: metabolite ribose-phosphate; for sarcosine/alanine: metabolite sarcosine/alanine; for sn-glycerol-3-phosphate: metabolite sn-glycerol-3-phosphate; for succinate/methylmalonic acid: metabolite succinate/methylmalonic acid; for uridine: metabolite uridine; for xanthosine: metabolite xanthosine
smiles,measurement,setting,value
Cc1cc(Nc2ccc(C)c(Cl)c2)n2nc(C(F)(F)F)nc2n1 [MMV665874],EC50,[1],6.71 nM
same,Acetyllysine,[2],-0.4022
same,N-acetyl-L-ornithine,[2],-0.2526
same,N-carbamoyl-L-aspartate,[2],4.028
same,NADPH,[2],0.1752
same,dAMP,[2],-0.05231
same,dCMP,[2],-0.05814
same,dTDP,[2],-1.343
same,dTMP,[2],-1.0853
same,dTTP,[2],-1.254
same,dihydroorotate,[2],5.397
same,orotate,[2],0.2167
same,DLH,[2],-0.1943
same,DLS/SDL/SID,[2],-0.1199
same,PD,[2],-0.005549
same,PEE,[2],-0.4065
same,PVNF,[2],-0.2835
same,3-phosphoglycerate,[2],0.03547
same,ADP-D-glucose,[2],0.02005
same,ATP,[2],0.1462
same,CDP,[2],-0.8722
same,D-sedoheptulose-1/7-phosphate,[2],-0.2118
same,FAD,[2],-0.01762
same,GMP,[2],0.4662
same,NAD+,[2],-0.1
same,NADP+,[2],-0.1197
same,Octoluse Bisphosphate,[2],0.03302
same,Pyroglutamic acid,[2],0.08116
same,UDP-D-glucose,[2],-0.2063
same,UDP-D-glucuronate,[2],-0.109
same,UDP-N-acetyl-glucosamine,[2],-0.4453
same,UDP,[2],-1.835
same,UMP,[2],-1.099
same,UTP,[2],-1.702
same,a-ketoglutarate,[2],-0.1317
same,citrate/isocitrate,[2],-0.1582
same,cytidine,[2],-0.03725
same,dATP,[2],0.3143
same,dGMP/AMP,[2],0.07446
same,fumarate,[2],-0.3892
same,glucose-1/6-phosphate,[2],0.2173
same,glycerate,[2],0.07615
same,guanine,[2],0.251
same,guanosine,[2],0.7775
same,hypoxanthine,[2],-0.1073
same,indole,[2],-0.01704
same,inosine,[2],-0.02522
same,2_3-Diphosphoglyceric acid,[2],0.1914
same,4-phosphopantothenate,[2],-0.3242
same,6-phospho-D-gluconate,[2],0.01162
same,FMN,[2],-0.4401
same,IMP,[2],-0.2175
same,Pyrophosphate,[2],0.07871
same,Sedoheptoluse bisphosphate,[2],0.06707
same,cyclic-AMP,[2],-0.1282
same,glutathione disulfide,[2],-0.03556
same,lactate,[2],-0.043
same,myo-inositol,[2],-0.09181
same,nicotinate,[2],-0.01808
same,ornithine,[2],0.04606
same,phosphoenolpyruvate,[2],0.07297
same,pyruvate,[2],0.2233
same,ribose-phosphate,[2],0.2644
same,sarcosine/alanine,[2],0.1358
same,sn-glycerol-3-phosphate,[2],0.2659
same,succinate/methylmalonic acid,[2],-1.091
same,uridine,[2],-0.8568
same,xanthosine,[2],-0.03941
COc1cccc(NC(=O)[C@H](C(C)C)n2c(=O)[nH]c3ccccc3c2=O)c1 [MMV665878],EC50,[1],139 nM
same,Acetyllysine,[2],-3.834
same,N-acetyl-L-ornithine,[2],-2.277
same,N-carbamoyl-L-aspartate,[2],-2.026
same,NADPH,[2],-0.665
same,dAMP,[2],2.607
same,dCMP,[2],1.538
same,dTDP,[2],2.818
same,dTMP,[2],4.246
same,dTTP,[2],1.03
same,dihydroorotate,[2],-1.926
same,orotate,[2],0.2146
same,DLH,[2],-4.819
same,DLS/SDL/SID,[2],-3.927
same,PD,[2],-1.32
same,PEE,[2],-2.783
same,PVNF,[2],-5.1424
same,3-phosphoglycerate,[2],-0.5747
same,ADP-D-glucose,[2],-0.6055
same,ATP,[2],-2.891
same,CDP,[2],0.1584
same,D-sedoheptulose-1/7-phosphate,[2],-0.5795
same,FAD,[2],-1.328
same,GMP,[2],-2.538
same,NAD+,[2],0.9896
same,NADP+,[2],-0.2932
same,Octoluse Bisphosphate,[2],-2.487
same,Pyroglutamic acid,[2],-0.4358
same,UDP-D-glucose,[2],-0.03487
same,UDP-D-glucuronate,[2],-0.6105
same,UDP-N-acetyl-glucosamine,[2],0.07778
same,UDP,[2],-0.1367
same,UMP,[2],0.1216
same,UTP,[2],-1.546
same,a-ketoglutarate,[2],-0.5207
same,citrate/isocitrate,[2],-1.159
same,cytidine,[2],0.1724
same,dATP,[2],-1.5606
same,dGMP/AMP,[2],-1.273
same,fumarate,[2],0.3725
same,glucose-1/6-phosphate,[2],-0.9191
same,glycerate,[2],0.3692
same,guanine,[2],-0.09985
same,guanosine,[2],-0.2889
same,hypoxanthine,[2],-0.3925
same,indole,[2],-0.3292
same,inosine,[2],-0.04266
same,2_3-Diphosphoglyceric acid,[2],-1.256
same,4-phosphopantothenate,[2],-0.4545
same,6-phospho-D-gluconate,[2],-0.4297
same,FMN,[2],-0.3548
same,IMP,[2],-0.5176
same,Pyrophosphate,[2],-1.335
same,Sedoheptoluse bisphosphate,[2],-0.9263
same,cyclic-AMP,[2],-1.127
same,glutathione disulfide,[2],-0.2446
same,lactate,[2],-1.397
same,myo-inositol,[2],-0.3766
same,nicotinate,[2],0.2929
same,ornithine,[2],0.191
same,phosphoenolpyruvate,[2],-0.242
same,pyruvate,[2],-1.851
same,ribose-phosphate,[2],-0.6091
same,sarcosine/alanine,[2],-1.666
same,sn-glycerol-3-phosphate,[2],0.02823
same,succinate/methylmalonic acid,[2],0.3592
same,uridine,[2],0.5173
same,xanthosine,[2],-1.769
